Measured values: patent US10674728B2, “Pesticidal compositions” (SYNGENTA PARTICIPATIONS AG, priority 2016, dated 2020)

Tests used:
[1] = system: Glomerella lagenarium syn. Colletotrichum lagenarium; assay: Tests against Glomerella lagenarium (anthracnose of cucurbits), growth inhibition in microtiter plate; assay type: cell-based; settings: Colletotrichum orbiculare, 72 hrs, 24° C., read-out: Observed % activity
[2] = system: Rice (Oryza sativa L.) of the local variety ADT45; assay: Heat stress mitigation field trials in rice, grain yield; assay type: in vivo; settings: 10 gAl/Ha, foliar spray at panicle formation (BBCH 32), hot season
Experimental: Tests were conducted to determine the heat stress mitigation efficacy of compositions of the present invention.
Trials were conducted in the Tamil Nadu rice production area (India) during the hot season in 2016.
Rice (Oryza sativa L.) of the local variety ADT45 was mechanically transplanted at four plants per hill with a plant spacing of 16 cm and a row spacing of 30 cm. All trials were performed in good level of water management. Fertilizer was applied in accordance with the best local practice across the trial area.
Commercial treated seeds (no neonicotinoids as seed treatments) were used. Weed control was according to the best local practice in order to provide excellent weed control. Foliar fungicides and insecticides were applied according to common practice (no products that contain neonicotinoids or strobilurins).
The trial design was a randomized bloc design. Plot size was 40 m^2 (4 m width [12 rows] by 10 m row length). Each trial had four replicates. In total, eleven trials were conducted.
Treatments were applied with small-plot hand-held boom sprayer as broadcast foliar spray in close proximity to leaf/canopy surface (25-40 cm distance from the crop), at the following different treatment timings: panicle initiation (BBCH 30), panicle formation (BBCH 32), spikelet differentiation (BBCH 35) and meiosis (BBCH 39).

Pyricularia orzyae = assay: microbe, parasite or virus in culture; assay type: cell-based; settings: 72 h, read-out: Observed % activity
Rhizoctonia solani = assay: Tests against Rhizoctonia solani (foot rot, damping-off), growth inhibition in microtiter plate; assay type: cell-based; settings: 72 hrs, 24° C., read-out: Observed % activity
[3] = (A) Formula (Ia) 10.0 ppm alone

**Q.** With `COc1cccc(Nc2nc(F)nc3[nH]cnc23)c1` [Formula (Ia)] as the compound, how does the inhibition at 0.625 ppm ([1]; (A) Formula (Ia) 0.6250 ppm alone, inhibition of growth, photometric at 620 nm) read?
**A.** 5%

**Q.** And the inhibition at 1.25 ppm ([1]; (A) Formula (Ia) 1.25 ppm alone)?
**A.** 0%

**Q.** And the inhibition at 2.5 ppm ([1]; (A) Formula (Ia) 2.5 ppm alone)?
**A.** 2%

**Q.** And the inhibition at 5 ppm ([1]; (A) Formula (Ia) 5.0 ppm alone)?
**A.** 0%

**Q.** And the inhibition at 10 ppm [1, 3]?
**A.** 0%

**Q.** And the “Average yield increase compared to UTC” value [2]?
**A.** 4.4%

**Q.** And the “Yield at 14% MC” value [2]?
**A.** 6820 kg/ha

**Q.** And the inhibition at 0.1563 ppm (Pyricularia orzyae)?
**A.** 0%

**Q.** What about the inhibition at 10 ppm (Pyricularia orzyae) of the same compound?
**A.** 3%

**Q.** What about the inhibition at 5 ppm (Rhizoctonia solani; (A) Formula (Ia) 5.0 ppm alone, inhibition of growth, photometric) of the same compound?
**A.** 7%

**Q.** And the inhibition at 10 ppm (Rhizoctonia solani; [3])?
**A.** 0%

**Q.** And the inhibition at 20 ppm (Rhizoctonia solani; (A) Formula (Ia) 20.0 ppm alone)?
**A.** 0%

**Q.** How did the inhibition at 0.25 ppm ([1]; (B) Difenoconazole 0.25 ppm alone) turn out when `CC1COC(Cn2cncn2)(c2ccc(Oc3ccc(Cl)cc3)cc2Cl)O1` (stereo not shown) [Difenoconazole, difenoconazole, reference compound] was run?
**A.** 36%

**Q.** And the inhibition at 0.0625 ppm (Pyricularia orzyae)?
**A.** 34%

**Q.** And the inhibition at 0.25 ppm (Pyricularia orzyae)?
**A.** 71%

**Q.** What about the inhibition at 2 ppm (Rhizoctonia solani; (B) Difenoconazole 2.0 ppm alone) of the same compound?
**A.** 47%
